Results on two molecules are retold here after publication PMC6026274, “A GLP-1:CCK fusion peptide harnesses the synergistic effects on metabolism of CCK-1 and GLP-1 receptor agonism in mice” (Appetite, 2018).

Data set [1] has as its system diet-induced obese (DIO) C57BL6 mice. In words: Pharmacology study in DIO mice. As to conditions: AC3174 and AC170222 7 nmol/kg each, C2816 and (pGlu-Gln)-CCK-8/exendin-4 50 nmol/kg. The format is in vivo. On the procedure: Obese male 10-week old C57BL6 mice (Jackson Laboratory) on high-fat diet (D12492, 60% kcal/fat, Research Diets) were single housed upon arrival and allowed to acclimate for 2 weeks. On day −3 mice were weighed and randomized to treatment groups (n = 8/group) based on body weight, with each mouse dosed once daily with two compounds or vehicle administered separately. […] Drug was administered once daily for 10 days intraperitoneally (5 mL/kg) 2 h prior to lights off.

A further data set has as its system Sprague Dawley rats. The data set can be described thus: Kaolin intake in lean rats. The format is in vivo. As to conditions: overnight fasted lean rats, single i.p. injection; C2816 7 or 50 nmol/kg, cisplatin 10 mg/kg; vs vehicle; n = 9/group. The method, then: After the acclimation period, rats were given chow and kaolin diet (K50001, Research Diets, Billerica, MA) in adjacent separate compartments in a divided food hopper. Rats were randomized to treatment groups based on 24 h chow intake, 24 h kaolin intake and body weight (n = 9/group). […] Cisplatin (10 mg/kg; Sigma-Aldrich, St Louis, MO) was administered i.p. as a positive control. Chow and kaolin intake was recorded at 4 and 24 h. A final body weight was also recorded at 24 h.

Where [2] appears, read: terminal plasma, day 10, once daily i.p., mean ± SEM, n = 8, SEM.

Starred links: 1 amine or outer side, 2 acyl side, 3 side chain; linkers in the order of their positions; H or OH if unused. Non-standard residues stand in square brackets, D forms with d. Residues, ends and D or L forms follow the SMILES beside them. Groups on a side chain read outwards from the residue. *: point of attachment. NMeF = CN[C@@H](Cc1ccccc1)C(=O)O; NH(2-Me-phenyl) = Cc1ccccc1N*; Nle = CCCC[C@H](N)C(=O)O; X1 = O=C(Cc1ccc(O)cc1)*; CO = O=C([*:1])[*:2]

As to `CCCC[C@H](NC(=O)Cc1ccc(O)cc1)C(=O)NCC(=O)N[C@@H](Cc1c[nH]c2ccccc12)C(=O)N[C@@H](CCCCNC(=O)Nc1ccccc1C)C(=O)N[C@@H](CC(=O)O)C(=O)N(C)[C@@H](Cc1ccccc1)C(N)=O` [AC170222] (X1-[Nle]GWK([CO-NH(2-Me-phenyl)])D[NMeF]-NH2), the Body weight change result in data set [1] (DIO mice, once daily i.p. for 10 days, n = 8/group) is “did not affect”. The Glucose in data set [1] (terminal non-fasted blood glucose, day 10, once daily i.p., mean ± SEM, n = 8, SEM) is listed as 280 ± 11 mg/dL. Besides, in data set [1] (setting [2]), the ALT was found to be 86 ± 32 U/L, the AST came out at 95 ± 27 U/L, the Amylase was determined as 2759 ± 75 U/L and the Cholesterol came out at 192 ± 28 mg/dL. In data set [1] (setting [2]), this molecule had an Insulin of 11.3 ± 4.1 ng/mL, a Lipase of 77 ± 49 U/L and a Triglycerides of 114 ± 6 mg/dL.

For the molecule `N.N.[Cl][Pt][Cl]` [cisplatin, Cisplatin], the “Food (chow) intake at 4 h and 24 h post-dose” value with Sprague Dawley rats is “similarly reduced food intake as high dose C2816”.
